SMILES strings stand for the structures. A value given as a limit tells only on which side of the number the result lay.

The target in the first assay is T1, ER (Homo sapiens, UniProt P03372).
T1 construct: host or cells: T47D and MCF7 human breast cancer cells
T1 sequence (P03372 1-595): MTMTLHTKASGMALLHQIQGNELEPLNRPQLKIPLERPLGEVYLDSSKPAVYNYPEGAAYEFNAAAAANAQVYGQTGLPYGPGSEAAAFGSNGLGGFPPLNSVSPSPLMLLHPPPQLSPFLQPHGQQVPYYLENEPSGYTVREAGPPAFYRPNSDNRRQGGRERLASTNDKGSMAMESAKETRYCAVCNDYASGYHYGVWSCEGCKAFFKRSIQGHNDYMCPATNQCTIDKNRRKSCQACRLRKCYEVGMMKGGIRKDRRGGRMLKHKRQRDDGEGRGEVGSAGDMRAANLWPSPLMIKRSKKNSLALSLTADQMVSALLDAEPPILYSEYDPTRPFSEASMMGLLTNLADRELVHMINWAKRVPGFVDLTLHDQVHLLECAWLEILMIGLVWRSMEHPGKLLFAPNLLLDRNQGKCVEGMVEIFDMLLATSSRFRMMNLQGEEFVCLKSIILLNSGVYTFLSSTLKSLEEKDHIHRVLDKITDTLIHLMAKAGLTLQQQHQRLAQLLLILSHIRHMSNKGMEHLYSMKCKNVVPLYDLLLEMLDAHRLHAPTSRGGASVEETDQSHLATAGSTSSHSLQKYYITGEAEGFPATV
Nature of the assay: ER degradation activity, in-cell western blot analysis in T47D cells. The class given is cell-based. Particulars: 16 hours, Table A does not say which cell line (T47D or MCF7), read-out: Potency (DC50). The gist of the method: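 Cells were seeded overnight, exposed to diluted compounds for 16 hours, then stained with primary antibodies and with infrared-labelled secondary antibodies (1:1000, 1 h RT). Plates were scanned on a CLX reader, and ER levels were normalised to DMSO-treated wells.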
In general, DC50 refers to the concentration at which degradation of the target reaches its halfway point. On to `C[C@@H]1Cc2c([nH]c3ccccc23)[C@@H](c2c(F)cc(N3CC4(CCCN(CC(=O)N5Cc6cc7c(cc6C5)C(=O)N(C5CCC(=O)NC5=O)C7)C4)C3)cc2F)N1CC(F)F` (stereo partly drawn) [E 106, 3-(6-(2-(2-(4-((1R,3R)-2-(2,2-difluoroethyl)-3-methyl-2,3,4,9-tetrahydro-1H-pyrido[3,4-b]indol-1-yl)-3,5-difluorophenyl)-2,6-diazaspiro[3.5]nonan-6-yl)acetyl)-1-oxo-3,5,6,7-tetrahydropyrrolo[3,4-f]isoindol-2(1H)-yl)piperidine-2,6-dione], for which the 50% degradation concentration (DC50) lay within 10 to 100 nM. With `CN(C1CCC(N2Cc3cc4c(cc3C2)C(=O)N(C2CCC(=O)NC2=O)C4=O)CC1)C1CCN(c2ccc([C@@H]3c4ccc(O)cc4CC[C@@H]3c3ccccc3)cc2)CC1` (stereo partly drawn) [E 324, 2-(2,6-dioxopiperidin-3-yl)-6-(4-((1-(4-((1R,2S)-6-hydroxy-2-phenyl-1,2,3,4-tetrahydronaphthalen-1-yl)phenyl)piperidin-4-yl)(methyl)amino)cyclohexyl)-6,7-dihydropyrrolo[3,4-f]isoindole-1,3(2H,5H)-dione], the DC50 was more than 100 nM. Same read-out and setting: as for `C[C@@H]1Cc2c([nH]c3ccccc23)[C@@H](c2c(F)cc(C3CCN(C(=O)[C@H]4CC[C@H](N5Cc6cc7c(cc6C5)C(=O)N(C5CCC(=O)NC5=O)C7=O)CC4)CC3)cc2F)N1CC(F)F` (stereo partly drawn) [E 393, 6-((1R,4r)-4-(4-(4-((1R,3R)-2-(2,2-difluoroethyl)-3-methyl-2,3,4,9-tetrahydro-1H-pyrido[3,4-b]indol-1-yl)-3,5-difluorophenyl)piperidine-1-carbonyl)cyclohexyl)-2-(2,6-dioxopiperidin-3-yl)-6,7-dihydropyrrolo[3,4-f]isoindole-1,3(2H,5H)-dione], the figure is less than 10 nM; as for `O=C1CCC(N2C(=O)c3cc4c(cc3C2=O)CN(CC(=O)N2CC3(C2)CN(c2ccc([C@@H]5c6ccc(O)cc6CC[C@@H]5c5ccc(F)cc5)cc2)C3)C4)C(=O)N1` (mixture of isomers) [E 18, Rac-2-(2,6-dioxopiperidin-3-yl)-6-(2-(6-(4-((1R,2S)-2-(4-fluorophenyl)-6-hydroxy-1,2,3,4-tetrahydronaphthalen-1-yl)phenyl)-2,6-diazaspiro[3.3]heptan-2-yl)-2-oxoethyl)-6,7-dihydropyrrolo[3,4-f]isoindole-1,3(2H,5H)-dione], 10 to 100 nM.

For `C[C@@H]1Cc2c([nH]c3ccccc23)[C@@H](c2c(F)cc(N3CCC4(CCN(C(=O)CN5Cc6cc7c(cc6C5)C(=O)N(C5CCC(=O)NC5=O)C7)C4)C3)cc2F)N1CC(F)F` (stereo partly drawn) [E 68, 3-(6-(2-(7-(4-((1R,3R)-2-(2,2-difluoroethyl)-3-methyl-2,3,4,9-tetrahydro-1H-pyrido[3,4-b]indol-1-yl)-3,5-difluorophenyl)-2,7-diazaspiro[4.4]nonan-2-yl)-2-oxoethyl)-1-oxo-3,5,6,7-tetrahydropyrrolo[3,4-f]isoindol-2(1H)-yl)piperidine-2,6-dione], the DC50 lay within 10 to 100 nM. On to `O=C1CCC(N2C(=O)c3cc4c(cc3C2=O)CN([C@H]2CC[C@H](C(=O)N3CC(Oc5ccc([C@H]6c7ccc(O)cc7CC[C@H]6c6ccccc6)cc5)C3)CC2)C4)C(=O)N1` (stereo partly drawn) [E 385, 2-(2,6-dioxopiperidin-3-yl)-6-((1S,4r)-4-(3-(4-((1S,2R)-6-hydroxy-2-phenyl-1,2,3,4-tetrahydronaphthalen-1-yl)phenoxy)azetidine-1-carbonyl)cyclohexyl)-6,7-dihydropyrrolo[3,4-f]isoindole-1,3(2H,5H)-dione], for which the DC50 is less than 10 nM. The same measure, in the same setting: as for `O=C1CCC(N2C(=O)c3cc4c(cc3C2=O)CN(CC2CCN(C(=O)C3CCN(c5ccc([C@@H]6c7ccc(O)cc7CC[C@@H]6c6ccccc6)cc5)CC3)CC2)C4)C(=O)N1` (mixture of isomers) [E 14, Rac-2-(2,6-dioxopiperidin-3-yl)-6-((1-(1-(4-((1R,2S)-6-hydroxy-2-phenyl-1,2,3,4-tetrahydronaphthalen-1-yl)phenyl)piperidine-4-carbonyl)piperidin-4-yl)methyl)-6,7-dihydropyrrolo[3,4-f]isoindole-1,3(2H,5H)-dione], the figure is 10 to 100 nM; as for `O=C1CCC(N2C(=O)c3cc4c(cc3C2=O)CN(CC(=O)N2CCC3(CC2)CCN(c2ccc([C@@H]5c6ccc(O)cc6CC[C@@H]5c5ccccc5)nc2)CC3)C4)C(=O)N1` (mixture of isomers) [E 305, Rac-2-(2,6-dioxopiperidin-3-yl)-6-(2-(9-(6-((1S,2S)-6-hydroxy-2-phenyl-1,2,3,4-tetrahydronaphthalen-1-yl)pyridin-3-yl)-3,9-diazaspiro[5.5]undecan-3-yl)-2-oxoethyl)-6,7-dihydropyrrolo[3,4-f]isoindole-1,3(2H,5H)-dione], more than 100 nM.

The same assay, now with this note: compounds 16 hours, Table A does not say whether T47D or MCF7, read-out: Potency (DC50).
With `C[C@@H]1Cc2cc(O)ccc2[C@@H](c2c(F)cc(N(C)C3CC4(CCN(C(=O)CN5Cc6cc7c(cc6C5)C(=O)N(C5CCC(=O)NC5=O)C7=O)CC4)C3)cc2F)N1CC(F)F` (stereo partly drawn) [E 452, 6-(2-(2-((4-((1S,3R)-2-(2,2-difluoroethyl)-6-hydroxy-3-methyl-1,2,3,4-tetrahydroisoquinolin-1-yl)-3,5-difluorophenyl)(methyl)amino)-7-azaspiro[3.5]nonan-7-yl)-2-oxoethyl)-2-(2,6-dioxopiperidin-3-yl)-6,7-dihydropyrrolo[3,4-f]isoindole-1,3(2H,5H)-dione], the DC50 is 10 to 100 nM. Regarding `CC1(C(=O)N2CCC(N3Cc4cc5c(cc4C3)C(=O)N(C3CCC(=O)NC3=O)C5=O)CC2)CCN(c2ccc([C@@H]3c4ccc(O)cc4CC[C@@H]3c3ccccc3)cc2)CC1` (mixture of isomers) [E 488, rac-2-(2,6-dioxopiperidin-3-yl)-6-(1-(1-(4-((1R,2S)-6-hydroxy-2-phenyl-1,2,3,4-tetrahydronaphthalen-1-yl)phenyl)-4-methylpiperidine-4-carbonyl)piperidin-4-yl)-6,7-dihydropyrrolo[3,4-f]isoindole-1,3(2H,5H)-dione], the DC50 was more than 100 nM. Consider `C[C@@H]1Cc2c([nH]c3ccccc23)[C@@H](c2ncc(C3=CCC(C(=O)N4CCC(N5Cc6cc7c(cc6C5)C(=O)N(C5CCC(=O)NC5=O)C7=O)CC4)CC3)cc2F)N1CC(C)(C)F` (stereo partly drawn) [E 484, 2-(2,6-dioxopiperidin-3-yl)-6-(1-(4-(5-fluoro-6-((1S,3R)-2-(2-fluoro-2-methylpropyl)-3-methyl-2,3,4,9-tetrahydro-1H-pyrido[3,4-b]indol-1-yl)pyridin-3-yl)cyclohex-3-ene-1-carbonyl)piperidin-4-yl)-6,7-dihydropyrrolo[3,4-f]isoindole-1,3(2H,5H)-dione], for which the 50% degradation concentration (DC50) was more than 100 nM. Still for that read-out and setting: as for `COc1cc([C@H]2CC[C@@H](C(=O)N3CCC(N4Cc5cc6c(cc5C4)C(=O)N(C4CCC(=O)NC4=O)C6=O)CC3)CC2)ccc1[C@@H]1c2[nH]c3ccccc3c2C[C@@H](C)N1CC(F)F` (stereo partly drawn) [E 404, 6-(1-((1S,4s)-4-(4-((1R,3R)-2-(2,2-difluoroethyl)-3-methyl-2,3,4,9-tetrahydro-1H-pyrido[3,4-b]indol-1-yl)-3-methoxyphenyl)cyclohexane-1-carbonyl)piperidin-4-yl)-2-(2,6-dioxopiperidin-3-yl)-6,7-dihydropyrrolo[3,4-f]isoindole-1,3(2H,5H)-dione], the figure is more than 100 nM; as for `COc1c2c(cc3c1C(=O)N(C1CCC(=O)NC1=O)C3=O)CN(CC(=O)N1CCC3(CC1)CCN(c1ccc([C@@H]4c5ccc(O)cc5CC[C@@H]4c4ccccc4)cc1)CC3)C2` (stereo partly drawn) [E 420, 2-(2,6-dioxopiperidin-3-yl)-6-(2-(9-(4-((1R,2S)-6-hydroxy-2-phenyl-1,2,3,4-tetrahydronaphthalen-1-yl)phenyl)-3,9-diazaspiro[5.5]undecan-3-yl)-2-oxoethyl)-4-methoxy-6,7-dihydropyrrolo[3,4-f]isoindole-1,3(2H,5H)-dione], 10 to 100 nM; as for `COc1cc([C@H]2CC[C@H](C(=O)N3CCC(N4Cc5cc6c(cc5C4)C(=O)N(C4CCC(=O)NC4=O)C6=O)CC3)CC2)ccc1[C@@H]1c2[nH]c3ccccc3c2C[C@@H](C)N1CC(F)F` (stereo partly drawn) [E 403, 6-(1-((1R,4r)-4-(4-((1R,3R)-2-(2,2-difluoroethyl)-3-methyl-2,3,4,9-tetrahydro-1H-pyrido[3,4-b]indol-1-yl)-3-methoxyphenyl)cyclohexane-1-carbonyl)piperidin-4-yl)-2-(2,6-dioxopiperidin-3-yl)-6,7-dihydropyrrolo[3,4-f]isoindole-1,3(2H,5H)-dione], 10 to 100 nM. `C[C@@H]1Cc2c([nH]c3ccccc23)[C@@H](c2ncc(C3=CCC(C(=O)N4CCC(N5Cc6cc7c(cc6C5)C(=O)N(C5CCC(=O)NC5=O)C7=O)CC4)CC3)cc2F)N1CC(F)F` (stereo partly drawn) [E 399, 6-(1-(4-(6-((1S,3R)-2-(2,2-difluoroethyl)-3-methyl-2,3,4,9-tetrahydro-1H-pyrido[3,4-b]indol-1-yl)-5-fluoropyridin-3-yl)cyclohex-3-ene-1-carbonyl)piperidin-4-yl)-2-(2,6-dioxopiperidin-3-yl)-6,7-dihydropyrrolo[3,4-f]isoindole-1,3(2H,5H)-dione]: the DC50 was more than 100 nM.

For the origin of these results see patent US20240190880A1 (THE REGENTS OF THE UNIVERSITY OF MICHIGAN, priority 2021, published 2024).
